Like-named read-outs stand apart in the source and are kept apart here.
Key:
Assay type in all cases: biochemical
[1] = biological target: BChE (EC 3.1.1.8) (Homo sapiens, UniProt P06276); test: In vitro BChE inhibition assay
[2] = biological target: T1, MAO-A (Homo sapiens, UniProt P21397); test: In vitro MAO-A inhibition assay
T1 sequence (P21397 1-527): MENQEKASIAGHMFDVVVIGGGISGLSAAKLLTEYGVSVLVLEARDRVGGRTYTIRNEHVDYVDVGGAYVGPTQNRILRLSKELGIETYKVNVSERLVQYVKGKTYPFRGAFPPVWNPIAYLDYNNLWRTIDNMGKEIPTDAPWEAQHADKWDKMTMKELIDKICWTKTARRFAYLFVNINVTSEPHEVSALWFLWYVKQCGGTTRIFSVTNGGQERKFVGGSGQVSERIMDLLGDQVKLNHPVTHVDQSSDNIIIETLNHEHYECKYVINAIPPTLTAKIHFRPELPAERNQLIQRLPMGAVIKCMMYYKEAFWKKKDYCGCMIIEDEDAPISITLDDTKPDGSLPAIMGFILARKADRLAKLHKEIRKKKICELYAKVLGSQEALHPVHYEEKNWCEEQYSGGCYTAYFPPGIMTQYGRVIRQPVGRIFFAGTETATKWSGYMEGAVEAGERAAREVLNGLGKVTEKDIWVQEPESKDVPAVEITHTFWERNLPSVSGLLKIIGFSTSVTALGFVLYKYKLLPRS

[3] = biological target: AChE (EC Number: 3.1.1.7.) (Homo sapiens, UniProt P22303); test: In vitro AChE inhibition assay
AChE (EC Number: 3.1.1.7.), sequence (P22303 32-614): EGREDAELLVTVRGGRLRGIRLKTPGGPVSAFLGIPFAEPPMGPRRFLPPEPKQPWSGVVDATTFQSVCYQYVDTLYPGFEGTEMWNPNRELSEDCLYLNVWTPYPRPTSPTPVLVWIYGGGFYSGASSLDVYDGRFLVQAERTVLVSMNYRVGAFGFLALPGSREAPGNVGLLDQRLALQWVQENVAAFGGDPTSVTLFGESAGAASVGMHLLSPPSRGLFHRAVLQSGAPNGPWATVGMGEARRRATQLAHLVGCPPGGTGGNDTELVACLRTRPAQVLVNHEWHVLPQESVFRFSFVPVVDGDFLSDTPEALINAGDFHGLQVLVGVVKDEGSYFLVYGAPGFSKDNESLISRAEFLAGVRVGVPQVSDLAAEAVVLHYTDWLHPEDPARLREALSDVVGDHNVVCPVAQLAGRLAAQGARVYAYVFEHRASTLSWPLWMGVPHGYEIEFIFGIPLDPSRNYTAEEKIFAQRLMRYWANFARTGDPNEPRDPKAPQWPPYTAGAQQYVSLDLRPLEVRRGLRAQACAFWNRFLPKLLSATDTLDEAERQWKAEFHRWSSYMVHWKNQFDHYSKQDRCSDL

[4] = biological target: T2, MAO-B (Homo sapiens, UniProt P27338); test: In vitro MAO-B inhibition assay
T2 sequence (P27338 1-520): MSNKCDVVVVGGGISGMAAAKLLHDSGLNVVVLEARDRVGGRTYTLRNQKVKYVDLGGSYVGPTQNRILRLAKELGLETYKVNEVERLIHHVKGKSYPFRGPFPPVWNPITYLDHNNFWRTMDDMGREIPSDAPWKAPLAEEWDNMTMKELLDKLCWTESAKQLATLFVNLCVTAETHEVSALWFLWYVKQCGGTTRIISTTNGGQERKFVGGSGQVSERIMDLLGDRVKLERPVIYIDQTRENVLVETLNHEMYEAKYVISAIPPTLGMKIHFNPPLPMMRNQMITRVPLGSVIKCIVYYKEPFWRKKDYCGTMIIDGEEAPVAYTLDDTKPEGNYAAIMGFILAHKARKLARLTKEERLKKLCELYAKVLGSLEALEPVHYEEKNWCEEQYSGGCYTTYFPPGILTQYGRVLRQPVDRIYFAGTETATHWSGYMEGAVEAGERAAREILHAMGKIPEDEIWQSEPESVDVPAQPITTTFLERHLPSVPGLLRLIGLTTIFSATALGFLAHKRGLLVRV

[5] = biological target: T3, Cyclooxygenase (COX-2) from human recombinant (Homo sapiens, UniProt P35354); test: biochemical
T3 sequence (P35354 18-604): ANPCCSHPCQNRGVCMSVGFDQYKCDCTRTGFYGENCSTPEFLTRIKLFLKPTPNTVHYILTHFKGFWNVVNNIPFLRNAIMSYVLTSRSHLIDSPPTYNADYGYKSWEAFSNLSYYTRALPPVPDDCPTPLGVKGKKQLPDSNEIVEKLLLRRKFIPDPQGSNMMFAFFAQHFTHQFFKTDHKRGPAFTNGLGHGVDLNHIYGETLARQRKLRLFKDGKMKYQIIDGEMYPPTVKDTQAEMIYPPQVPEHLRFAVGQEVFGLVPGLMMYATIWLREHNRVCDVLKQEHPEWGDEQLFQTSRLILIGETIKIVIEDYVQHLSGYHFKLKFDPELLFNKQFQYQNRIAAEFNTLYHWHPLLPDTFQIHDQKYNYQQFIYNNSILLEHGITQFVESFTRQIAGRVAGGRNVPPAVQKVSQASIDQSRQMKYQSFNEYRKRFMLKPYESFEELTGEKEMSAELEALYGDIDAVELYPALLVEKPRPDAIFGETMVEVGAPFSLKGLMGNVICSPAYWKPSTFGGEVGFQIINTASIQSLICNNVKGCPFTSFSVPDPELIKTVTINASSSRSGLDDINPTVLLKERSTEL

[6] = biological target: 5-lipoxygenase (5-LOX); test: 5-Lipoxygenase inhibitory assay; details: read-out: IC50 (μM) ± SEM 5-LOX
[7] = read-out: IC50 (μM) ± SEM BChE, ± SEM
[8] = read-out: IC50 (μM) ± SEM MAO-A, ± SEM

BChE (EC 3.1.1.8), sequence (P06276 29-602, species assumed): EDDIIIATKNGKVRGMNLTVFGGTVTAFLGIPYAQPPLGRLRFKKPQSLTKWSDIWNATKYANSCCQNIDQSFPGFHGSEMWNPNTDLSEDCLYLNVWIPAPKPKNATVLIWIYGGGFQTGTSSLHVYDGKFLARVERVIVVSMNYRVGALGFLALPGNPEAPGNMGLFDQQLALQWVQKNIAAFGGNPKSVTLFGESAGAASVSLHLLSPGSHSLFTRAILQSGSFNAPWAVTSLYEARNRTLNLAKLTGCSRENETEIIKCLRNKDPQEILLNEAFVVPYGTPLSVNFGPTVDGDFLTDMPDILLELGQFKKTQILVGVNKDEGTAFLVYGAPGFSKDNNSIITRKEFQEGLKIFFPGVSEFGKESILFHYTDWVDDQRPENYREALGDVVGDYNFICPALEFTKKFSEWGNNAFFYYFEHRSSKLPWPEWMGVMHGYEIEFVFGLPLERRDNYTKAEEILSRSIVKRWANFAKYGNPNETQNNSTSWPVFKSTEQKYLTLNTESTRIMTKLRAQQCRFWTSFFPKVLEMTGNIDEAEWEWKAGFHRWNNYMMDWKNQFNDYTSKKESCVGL

Row | Molecule | IC50 [1, 7] | IC50 [2, 8] | IC50 [3] | inhibition of AChE, in words [3] | IC50 [1] | activity against BChE, in words [1] | IC50 [2] | IC50 [4] | IC50 [5] | activity against COX-2, in words [5] | IC50 [6]
1 | 2,2′-(1-(4-(6-(2,4-Dichlorophenyl)-1,8a-dihydro-7H-[1,2,4]triazolo[3,4-b][1,3,4]thiadiazin-3-yl)phenyl)-1H-1,2,4-triazole-3,5-diyl)diphenol [Compound 25] | 1.09 ± 0.11 µM | 0.81 ± 0.02 µM |  |  |  |  |  |  |  |  | 
2 | O=C(O)c1ccc(-n2nc(-c3ccccc3O)nc2-c2ccccc2O)cc1 [Compound 9, deferasirox, reference compound] |  |  | 430 ± 50 nM | significant inhibition | 0.11 ± 0.005 µM | excellent to moderate activity | 10 ± 1.78 µM | 180 ± 10 nM | 4930 ± 380 nM | good to moderate activity | 1.28 ± 0.13 µM
3 | 3-(3-(4-(3,5-Bis(2-hydroxyphenyl)-1H-1,2,4-triazol-1-yl)phenyl)-1,8a-dihydro-7H-[1,2,4]triazolo[3,4-b][1,3,4]thiadiazin-6-yl)-3,10a-dihydro-2H-benzo[g]chromen-2-one [Compound 22] | 10.8 ± 0.97 µM | 0.61 ± 0.07 µM |  |  |  |  |  |  |  |  | 
4 | Oc1ccccc1-c1nc(-c2ccccc2O)n(-c2ccc(-c3nnc4n3N=C(c3ccc(Cl)cc3)CS4)cc2)n1 [Compound 15, 2,2′-(1-(4-(6-(4-Chlorophenyl)-7H-[1,2,4]triazolo[3,4-b][1,3,4]thiadiazin-3-yl)phenyl)-1H-1,2,4-triazole-3,5-diyl)diphenol] |  |  |  |  | 3.96 ± 0.22 µM |  | 3.58 ± 0.56 µM |  | 75300 ± 3560 nM | good to moderate activity | 
5 | 3-(3-(4-(3,5-Bis(2-hydroxyphenyl)-1H-1,2,4-triazol-1-yl)phenyl)-1,8a-dihydro-7H-[1,2,4]triazolo[3,4-b][1,3,4]thiadiazin-6-yl)-7-bromo-3,8a-dihydro-2H-chromen-2-one [Compound 23] | 14 ± 1.11 µM | 1.32 ± 0.11 µM |  |  |  | excellent to moderate activity |  |  |  |  | 

— PMC11694444 (RSC Advances, 2025)
